Test [1] addresses T1, human OX1 receptor (Homo sapiens, UniProt O43613).
T1 construct: expressed in transfected cells; host or cells: CHO cells
T1 sequence (O43613 1-425): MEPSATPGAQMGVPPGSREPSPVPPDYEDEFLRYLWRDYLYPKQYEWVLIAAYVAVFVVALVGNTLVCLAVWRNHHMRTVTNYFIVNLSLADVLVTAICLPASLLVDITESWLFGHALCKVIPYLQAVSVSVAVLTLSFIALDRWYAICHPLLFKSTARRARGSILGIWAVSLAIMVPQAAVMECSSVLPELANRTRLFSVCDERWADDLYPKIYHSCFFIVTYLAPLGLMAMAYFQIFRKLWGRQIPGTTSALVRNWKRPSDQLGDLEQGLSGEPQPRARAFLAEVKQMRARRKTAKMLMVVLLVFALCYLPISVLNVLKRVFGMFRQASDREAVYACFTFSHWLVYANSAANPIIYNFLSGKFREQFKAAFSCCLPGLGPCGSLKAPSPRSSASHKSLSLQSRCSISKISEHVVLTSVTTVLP
The test can be described thus: Ox1 antagonist FLIPR assay (calcium, orexin A at EC75). It is filed as cell-based. Particulars: CHO cells expressing human OX1; at least four replicates; read-out: hOX1 pIC50 (converted). An excerpt: (§1) Antagonism against orexin receptors has been measured for each example compound using at least one of the following procedures. Antagonism is reported as a pIC50, where pIC50=−log10(IC50) and where IC50 is the concentration of example compound needed to inhibit 50% of the agonist response. These values may fluctuate depending on the daily cellular assay performance. Fluctuations of this kind are known to those skilled in the art. All reported values are the result of at least four replicate experiments. Ox2 values are only reported from dose response curves for which the top concentration is at least 10 μM.
(§2) Ox1 and Ox2 Antagonist FLIPR Assay: […]
(§3) The next day media is removed and replaced with 30 μL/well of cell loading buffer (a vial of Calcium 5 is solubilized in 20 mL of assay buffer) and the cells incubated for 1 hr at 37° C. The serially diluted test compounds (10 μL/well) are added to the cell plate by the FLIPR Tetra and the addition is monitored for 5 min by the instrument. […] Finally 10 μL of orexin Ain assay buffer+0.1% (w/v) bovine serum albumin is dispensed by the FLIPR Tetra at an EC75 concentration determined for each receptor on the day of the assay. Fluorescence is measured at excitation and emission wavelengths of 485 nm and 525 nm, respectively and data analyzed using Graph Pad Prism for the EC75 value of orexin A and Aplus to determine a pIC50 value for each test compound. […]

The target in test [2] is T2, human OX2 receptor (Homo sapiens, UniProt O43614).
T2 construct: expressed in transfected cells; host or cells: CHO cell line (membranes)
T2 sequence (O43614 1-444): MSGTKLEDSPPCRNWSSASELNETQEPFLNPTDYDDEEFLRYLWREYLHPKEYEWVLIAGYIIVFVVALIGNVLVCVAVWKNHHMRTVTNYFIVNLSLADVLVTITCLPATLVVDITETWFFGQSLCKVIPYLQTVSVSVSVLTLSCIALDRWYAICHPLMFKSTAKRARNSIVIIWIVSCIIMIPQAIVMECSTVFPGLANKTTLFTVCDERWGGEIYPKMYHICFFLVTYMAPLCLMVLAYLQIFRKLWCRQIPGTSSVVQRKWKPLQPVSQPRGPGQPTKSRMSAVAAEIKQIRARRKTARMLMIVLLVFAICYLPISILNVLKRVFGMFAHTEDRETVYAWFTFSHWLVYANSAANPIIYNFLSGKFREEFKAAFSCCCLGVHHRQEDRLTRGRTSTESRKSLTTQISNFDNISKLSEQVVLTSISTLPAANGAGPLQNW
As to the kind of experiment: Ox2 antagonist FLIPR assay (calcium, orexin A at EC75). It is filed as cell-based. Particulars: CHO cells expressing human OX2; top concentration at least 10 μM; at least four replicates; read-out: hOX2 pIC50 (converted).
Excerpt: as §1, §2, §3

The target in test [3] is T1, human OX1 receptor. The test can be described thus: Orexin 1 receptor radioligand binding assay ([3H]-SB674042 competition). Particulars: CHO membranes, 1 nM [3H]-SB674042, 90 min room temperature; read-out: hOX1 pKi (converted). On the procedure: Orexin 1 Receptor Radioligand Binding Assay:
Cell membranes were prepared from the human OX1 receptor expressing CHO cell line. The harvested cell pellets were homogenized in ice-cold buffer (15 mM TrisHCl (pH 7.5), 2 mM MgCl2, 0.3 mM EDTA, 1 mM EGTA, Sigma protease inhibitor cocktail) and centrifuged at 41,000 g for 20 min at 4° C. After discarding the supernatants the pellets were re-suspended in the before mentioned buffer followed by homogenization and another centrifugation. Obtained pellets were re-suspended in ice cold buffer containing 75 mM TrisHCl (pH 7.5), 12.5 mM MgCl2, 0.3 mM EDTA, 1 mM EGTA, 250 mM sucrose and a protease inhibitor cocktail (Sigma). After protein quantification with the Pierce Protein Assay Kit, using BSA as standard, the membrane homogenates were aliquoted and frozen down at […] until further use.
Expression levels of the Ox1 receptor (Bmax) were determined by saturation binding and the Kd of the radioligand [^3H]SB674042 was determined by association and dissociation kinetics. Data were elaborated with Graph Pad Prism using radioligand binding analysis. Steady state binding was reached after 90 min of incubation at room temperature. […]

For `Cc1ccc(-n2nccn2)c(C(=O)N(C)[C@@H](C)CNc2cnc(C(F)(F)F)cn2)n1` [Example 1, N,6-dimethyl-3-(2H-1,2,3-triazol-2-yl)-N-[(2S)-1-{[5-(trifluoromethyl)pyrazin-2-yl]amino}propan-2-yl]pyridine-2-carboxamide], the IC50 in test [1] was 0.794 nM; in test [2], 1000 nM. Moreover, the Ki in test [3] was 1 nM.

Regarding `Cc1ccc(-n2nccn2)c(C(=O)N(C)[C@@H](C)CNc2ncc(C(F)(F)F)cn2)n1` [Example 2, N,6-dimethyl-3-(2H-1,2,3-triazol-2-yl)-N-[(2S)-1-{[5-(trifluoromethyl)pyrimidin-2-yl]amino}propan-2-yl]pyridine-2-carboxamide], the IC50 in test [1] is 1.26 nM; in test [2] it was 2000 nM. In addition, the Ki in test [3] was 1.58 nM.

The values above are taken from patent US12441709B2, “Therapeutic compounds” (INDIVIOR UK LIMITED, priority 2016, dated 2025).
